Test results: patent US20040038199A1, “Phenotyping assay and reagents therefor” (priority 2000, published 2004)
Read-outs that look alike come from different tables or passages of the source.

Tests used:
Type in all cases: cell-based, HIV-1
[1] = test system: Virus 1 (recombinant generated from plasma of Subject 1 by FPH or RVA); experiment: MTT-reduction cell viability drug susceptibility assay, recombinant Virus 1 (FPH or RVA); conditions: for fold resistance: Table 3A, relative to WT (HXB2); for fold higher susceptibility when generated by RVA than when generated by FPH: virus 1
Procedure: (§1) As previously discussed, recombinant virus produced by the method of the present invention may be used in drug sensitivity assays. A suitable drug sensitivity assay is described in Pauwels et al. (1988) and is an MTT-reduction colorimetric cell viability assay. Cells infected with the virus are plated into the wells of tissue culture plates and incubated with the anti-viral drug to be tested. After incubation, MTT (3-(4,5-dimethylthiazol-2-yl)-2,5diphenyltetrazolium bromide) is added to the cell culture. Only live cells produce the blue formazan product after incubation with MTT. This product is detectable by reading the optical absorbance at 540-590 nm, so the absorbance reading gives a measure of the cells which have been protected from the virus by the anti-viral drug. Viral drug resistance results in a decrease in surviving cells and a decrease in absorbance at 540-590 nm.
(§2) In this experiment, plasma from three HIV-1 infected subjects experiencing virological failure on PI-containing therapy regimens was used as the basis for the FPH to generate recombinant virus. […] Virus from Subject 2 had L10I, M46I, I50V and a Lp1′F mutation at the p1/p6 protease cleavage site, all of which are mutations typical of high level APV resistance.
(§3) The LTR was added to the nested products by PMR prior to transfection. The PMR reactions successfully added the LTR sequences to the nested products (FIG. 9). The first round RT-PCR reactions were also used as templates to generate products for RVA by cotransfection with pHXBΔCSPRTC. Triplicate PCR products were cotransfected into MT4 cells with the linearised plasmid pHXBTOPO1, in the case of the PMR products, and with linearised pHXBΔCSPRTC in for the RVA products. Viral cytopathic effect was observed and titratable virus was harvested in the supernatants. No virus was isolated from virus 2 using FPH and only one of the triplicate cultures from virus 3 yielded infectious virus. All of the RVA cultures produced virus.
(§4) In order to determine whether the extra sequences in the FPH recombinants contain determinants of susceptibility, the recombinant viruses were tested against several drugs. Drug susceptibility was determined by the 3-(4,5dimethylthiazol-2-yl)-2,5-diphenyltetrazolium bromide (MTT)-reduction calorimetric cell viability assay described previously (Pauwels et al. 1988; Robinson et al., 2000). Changes in susceptibility were defined as fold increase in IC50 relative to WT (HXB2). Nucleotide sequences were determined using ABI 3700 capillary sequencers and Big Dye terminators. […] Virus 1 also gave a 2.2-fold (Table 3A) or 4-fold (Table 3B) higher susceptibility to IDV and 2.9-fold (Table 3A) or 3.2-fold higher susceptibility to APV when generated by RVA.

[2] = test system: Virus 2 (recombinant generated from plasma of Subject 2 by RVA); experiment: MTT-reduction cell viability drug susceptibility assay, recombinant Virus 2 (RVA)
Procedure: as §1, §2, §3, §4

[3] = test system: Virus 3 (recombinant generated from plasma of Subject 3 by FPH or RVA); experiment: MTT-reduction cell viability drug susceptibility assay, recombinant Virus 3 (FPH or RVA); conditions: for EC50: Human immunodeficiency virus 1, Table 3A; for fold resistance: Table 3A, relative to WT (HXB2)
Procedure: as §1, §2, §3, §4

HXB2 = experiment: MTT-reduction cell viability drug susceptibility assay, wild type HXB2 (Table 3A)
Procedure: as §1, §4

[4] = test system: Virus 3.1, 3.2, 3.3 (recombinants by FPH or RVA); experiment: MTT-reduction cell viability drug susceptibility assay, viruses 3.1-3.3 (Table 3B); conditions: for fold resistance: Table 3B, relative to WT
Procedure: as §1, §3, §4

[5] = test system: Virus 4.1, 4.2, 4.3 (recombinants by RVA); experiment: MTT-reduction cell viability drug susceptibility assay, viruses 4.1-4.3 (Table 3B); conditions: for EC50: Human immunodeficiency virus 1, Table 3B; for fold resistance: Table 3B, relative to WT
Procedure: as §1, §3, §4

[6] = test system: Virus 5.1 (FPH), 5.2 (RVA); experiment: MTT-reduction cell viability drug susceptibility assay, viruses 5.1 and 5.2 (Table 3B); conditions: for EC50: Human immunodeficiency virus 1, Table 3B; for fold resistance: Table 3B, relative to WT
Procedure: as §1, §3, §4

[7] = test system: WT (HXB2) generated by FPH or RVA; experiment: MTT-reduction cell viability drug susceptibility assay, WT (Table 3B); conditions: for EC50: Human immunodeficiency virus 1, HXB2, Table 3B; for fold resistance: Table 3B
Procedure: as §1, §4

[8] = test system: recombinant viruses generated by FPH or RVA; experiment: Comparison of drug susceptibility of FPH generated and RVA generated viruses; conditions: two separate experiments (tables 3A and B)
Procedure: as §1
In order to determine whether the extra sequences in the FPH recombinants contain determinants of susceptibility, the recombinant viruses were tested against several drugs. Drug susceptibility was determined by the 3-(4,5dimethylthiazol-2-yl)-2,5-diphenyltetrazolium bromide (MTT)-reduction calorimetric cell viability assay described previously (Pauwels et al. 1988; Robinson et al., 2000). […] Nucleotide sequences were determined using ABI 3700 capillary sequencers and Big Dye terminators. […]

[9] = Human immunodeficiency virus 1, Table 3B, Virus 3.1, method FPH, read-out: Drug EC50
[10] = Human immunodeficiency virus 1, Table 3B, Virus 3.2, method FPH, read-out: Drug EC50
[11] = Human immunodeficiency virus 1, Table 3B, Virus 3.3, method FPH, read-out: Drug EC50
[12] = Human immunodeficiency virus 1, read-out: Drug EC50, Table 3B, Virus 3.1, method RVA

| SMILES | fold higher susceptibility when generated by RVA than when generated by FPH ([1]; Table 3B experiment) [fold] | EC50 [4, 9] [nM] | EC50 [4, 10] [nM] | EC50 [4, 11] [nM] | EC50 [4, 12] [nM] | fold resistance ([4]; Virus 3.1, method FPH) | fold resistance ([4]; Virus 3.1, method RVA) | fold resistance ([4]; Virus 3.2, method FPH) | fold resistance ([4]; Virus 3.3, method FPH) | EC50 ([5]; Virus 4.1, method RVA) [nM] | EC50 ([5]; Virus 4.2, method RVA) [nM] | EC50 ([5]; Virus 4.3, method RVA) [nM] | fold resistance ([5]; Virus 4.1, method RVA) | fold resistance ([5]; Virus 4.2, method RVA) | fold resistance ([5]; Virus 4.3, method RVA) | EC50 ([6]; Virus 5.1, method FPH) [nM] | EC50 ([6]; Virus 5.2, method RVA) [nM] | fold resistance ([6]; Virus 5.1, method FPH) | fold resistance ([6]; Virus 5.2, method RVA) | EC50 ([7]; method FPH) [nM] | also measured |
| --- | --- | --- | --- | --- | --- | --- | --- | --- | --- | --- | --- | --- | --- | --- | --- | --- | --- | --- | --- | --- | --- |
| CC(C)(C)NC(=O)[C@@H]1CN(Cc2cccnc2)CCN1C[C@@H](O)C[C@@H](Cc1ccccc1)C(=O)N[C@H]1c2ccccc2C[C@H]1O [IDV, indinavir] | 4 | 60.1 | 57.1 | 53.2 | 11.6 | (2.0) fold | (−2.7) fold | (1.9) fold | (1.7) fold | 65 | 23.8 | 39.3 | (2.1) fold | (−1.3) fold | (1.3) fold | 2230 | 1520 | (72) fold | (49) fold | 30.8 | EC50 ([1]; Human immunodeficiency virus 1, Table 3A, Virus 1, method RVA, read-out: Drug EC50): 14.2 nM; EC50 ([1]; Human immunodeficiency virus 1, read-out: Drug EC50, Table 3A, Virus 1, method FPH): 31.2 nM; fold resistance ([1]; Virus 1, method FPH): (1.1) fold; fold resistance ([1]; Virus 1, method RVA): (0.48) fold; fold higher susceptibility when generated by RVA than when generated by FPH ([1]; Table 3A experiment): 2.2 fold; EC50 ([2]; Human immunodeficiency virus 1, Table 3A, Virus 2, method RVA): 18.7 nM; fold resistance ([2]; Table 3A, Virus 2, method RVA, relative to WT (HXB2)): (0.63) fold; EC50 ([3]; Virus 3, method FPH): 1250 nM; EC50 ([3]; Virus 3, method RVA): 689 nM; fold resistance ([3]; Virus 3, method FPH): (42) fold; fold resistance ([3]; Virus 3, method RVA): (23) fold; fold resistance (HXB2; HXB2 wild type (reference)): (1.0) fold; EC50 (HXB2; Human immunodeficiency virus 1, HXB2 wild type): 29.7 nM; EC50 ([4]; Human immunodeficiency virus 1, Table 3B, Virus 3.2, method RVA, read-out: Drug EC50): 16.5 nM; fold resistance ([4]; Virus 3.2, method RVA): (−1.9) fold; EC50 ([7]; method RVA): 31.2 nM; fold resistance ([7]; method FPH (reference)): (1.0) fold; fold resistance ([7]; method RVA (reference)): (1.0) fold |
| Cc1cn([C@H]2C[C@H](N=[N+]=[N-])[C@@H](CO)O2)c(=O)[nH]c1=O [ZDV, zidovudine] | 4.8 | 76.1 | 65.3 | 35.1 | 12.3 | (2.7) fold | (−2.5) fold | (2.3) fold | (1.2) fold | > 5000 | > 5000 | > 5000 | (>163) fold | (>163) fold | (>163) fold | 48.2 | 16.5 | (1.7) fold | (−1.9) fold | 28.3 | resistance, fold higher than wild-type ([2]; Virus 2 obtained via the RVA, Table 3B experiment): > 84 fold; difference in susceptibility between the two techniques (RVA vs FPH) ([3]; virus 3, Table 3B experiment): 2.9 fold; EC50 ([7]; method RVA): 30.7 nM; fold resistance ([7]; method FPH (reference)): (1.0) fold; fold resistance ([7]; method RVA (reference)): (1.0) fold; Susceptibility in FPH generated versus RVA generated viruses [8]: lower in the FPH generated than the RVA generated viruses |
